From patent publication US10239880B2, “Cyclopenta[d]pyrimidines and substituted cyclopenta[d]pyrimidines as antitubulin and microtubule targeting agents, monocyclic pyrimidines as tubulin inhibitors, and pyrrolopyrimidines as targeted antifolates and tubulin and multiple receptor tyrosine kinase inhibition and antitumor agents” (Duquesne University of the Holy Spirit, priority 2015, dated 2019)
“Also recorded” adds a separate entry of the source. Where two headings read alike, the source gives them in different places.

What was measured:
MDA-MB-435 xenograft = MDA-MB-435 xenograft trial; conditions: for adverse effects / toxicity in xenograft trial: cumulative dosing; for antitumor effects: MDA-MB-435 xenograft
EGFR = EGFR (Homo sapiens, UniProt P00533); assay: Kinase inhibition, whole-cell assay, EGFR; type: cell-based; conditions: Table 1; IC50 ± SD; read-out: Kinase inhibition IC50 [whole-cell assays] EGFR
Sequence of EGFR (P00533 25-1210, species assumed): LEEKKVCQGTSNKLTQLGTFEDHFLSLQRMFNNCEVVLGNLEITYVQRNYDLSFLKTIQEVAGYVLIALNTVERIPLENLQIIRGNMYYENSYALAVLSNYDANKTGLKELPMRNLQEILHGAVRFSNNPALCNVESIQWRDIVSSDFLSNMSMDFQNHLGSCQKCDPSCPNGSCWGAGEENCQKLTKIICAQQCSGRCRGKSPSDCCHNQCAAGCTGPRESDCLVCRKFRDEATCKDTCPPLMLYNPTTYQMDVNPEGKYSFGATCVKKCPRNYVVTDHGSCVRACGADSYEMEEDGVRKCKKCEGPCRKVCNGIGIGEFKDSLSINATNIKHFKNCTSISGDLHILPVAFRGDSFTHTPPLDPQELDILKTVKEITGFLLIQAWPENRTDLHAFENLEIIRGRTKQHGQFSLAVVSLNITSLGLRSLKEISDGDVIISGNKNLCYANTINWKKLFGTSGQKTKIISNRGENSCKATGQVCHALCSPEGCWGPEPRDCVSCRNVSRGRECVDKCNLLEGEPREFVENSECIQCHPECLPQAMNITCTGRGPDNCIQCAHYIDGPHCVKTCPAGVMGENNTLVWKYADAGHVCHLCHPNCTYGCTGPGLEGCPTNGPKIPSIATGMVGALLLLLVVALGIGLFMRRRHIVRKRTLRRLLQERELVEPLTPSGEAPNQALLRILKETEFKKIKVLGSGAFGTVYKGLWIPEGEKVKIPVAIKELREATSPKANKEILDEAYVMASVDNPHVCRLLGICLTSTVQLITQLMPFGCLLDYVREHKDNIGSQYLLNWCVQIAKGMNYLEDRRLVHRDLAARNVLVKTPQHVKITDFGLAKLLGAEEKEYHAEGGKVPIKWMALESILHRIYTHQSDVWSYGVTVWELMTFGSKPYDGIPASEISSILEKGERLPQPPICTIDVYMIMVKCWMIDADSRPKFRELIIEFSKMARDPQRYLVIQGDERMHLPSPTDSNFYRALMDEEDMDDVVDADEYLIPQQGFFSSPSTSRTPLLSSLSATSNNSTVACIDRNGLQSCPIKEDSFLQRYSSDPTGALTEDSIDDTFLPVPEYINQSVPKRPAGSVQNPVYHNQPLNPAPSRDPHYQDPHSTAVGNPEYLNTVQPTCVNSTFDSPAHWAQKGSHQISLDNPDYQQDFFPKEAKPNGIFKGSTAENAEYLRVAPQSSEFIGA

MDA-MB-435 cancer cells = assay: Antiproliferative effect in MDA-MB-435 cancer cells (SRB assay); type: cell-based; conditions: Table 2, read-out: MDA-MB-435 IC50
MDA-MB-231 xenograft = MDA-MB-231 xenograft trial
[1] = system: NCI/ADR resistant tumor model; assay: NCI/ADR-RES xenograft trial (resistant tumor model); type: in vivo, mice; conditions: day 11, AG165 75 mg/kg
Source text: AG165 in MDA-MB-435 xenograph model:

A-10 cells = assay: Microtubule depolymerization, cell-based phenotypic assay in A-10 cells
PDGFR-β = PDGFR-β (Homo sapiens, UniProt P09619); assay: Kinase inhibition, whole-cell assay, PDGFR-β; type: cell-based; conditions: Table 1; IC50 ± SD; read-out: Kinase inhibition IC50 [whole-cell assays] PDGFR-β
Sequence of PDGFR-β (P09619 33-1106, species assumed): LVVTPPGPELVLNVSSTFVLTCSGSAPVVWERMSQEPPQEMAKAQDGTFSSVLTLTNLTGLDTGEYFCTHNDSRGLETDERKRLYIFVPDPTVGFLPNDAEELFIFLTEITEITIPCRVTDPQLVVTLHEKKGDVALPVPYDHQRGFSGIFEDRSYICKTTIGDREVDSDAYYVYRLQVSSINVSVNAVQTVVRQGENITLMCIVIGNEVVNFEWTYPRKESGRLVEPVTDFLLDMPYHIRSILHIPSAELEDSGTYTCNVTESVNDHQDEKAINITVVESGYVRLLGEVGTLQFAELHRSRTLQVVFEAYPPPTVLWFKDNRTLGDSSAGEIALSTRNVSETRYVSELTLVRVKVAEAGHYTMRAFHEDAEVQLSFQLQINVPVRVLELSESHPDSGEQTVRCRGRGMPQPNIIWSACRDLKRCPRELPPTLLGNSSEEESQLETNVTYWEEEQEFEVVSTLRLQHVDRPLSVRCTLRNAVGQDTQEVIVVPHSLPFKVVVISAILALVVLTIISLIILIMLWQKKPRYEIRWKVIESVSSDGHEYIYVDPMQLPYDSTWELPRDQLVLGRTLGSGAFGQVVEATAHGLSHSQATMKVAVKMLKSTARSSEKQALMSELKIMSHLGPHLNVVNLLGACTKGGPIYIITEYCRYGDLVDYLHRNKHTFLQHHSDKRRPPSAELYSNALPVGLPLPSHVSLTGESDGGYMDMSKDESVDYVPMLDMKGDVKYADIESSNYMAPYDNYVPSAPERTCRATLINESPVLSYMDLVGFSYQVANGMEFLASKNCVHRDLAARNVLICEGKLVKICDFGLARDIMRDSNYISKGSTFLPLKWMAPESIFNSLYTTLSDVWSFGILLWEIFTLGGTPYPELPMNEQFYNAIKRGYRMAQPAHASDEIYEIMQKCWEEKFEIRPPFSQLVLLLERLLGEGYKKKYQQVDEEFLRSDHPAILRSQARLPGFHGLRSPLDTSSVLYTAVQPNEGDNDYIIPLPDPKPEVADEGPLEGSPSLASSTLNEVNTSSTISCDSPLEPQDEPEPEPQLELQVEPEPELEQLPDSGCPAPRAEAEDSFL

[2] = system: tubulin (colchicine site); assay: Inhibition of [3H]colchicine binding to tubulin (Section III); conditions: 5 μM; Section III compounds
Parental SK-OV-3 = assay: Antiproliferative activity, parental SK-OV-3; type: cell-based; conditions: Homo sapiens, Table 6, read-out: IC50 ± SD Parental SK-OV-3
[3] = system: P-gp Overexpressing NCI/ADR-RES; assay: Antiproliferative effect, P-gp overexpressing NCI/ADR-RES (SRB assay); conditions: Homo sapiens, read-out: IC50 ± SD P-gp Overexpressing NCI/ADR-RES
Parental OVCAR-8 = assay: Antiproliferative effect, parental OVCAR-8 (SRB assay); type: cell-based; conditions: Homo sapiens, Table 10, n = 3, read-out: IC50 ± SD Parental OVCAR-8
Parental HeLa = assay: Antiproliferative activity, parental HeLa; type: cell-based; conditions: Homo sapiens, Table 7, read-out: IC50 ± SD Parental HeLa
Source text: (§1) Another clinically relevant drug resistance mechanism of tubulin-targeting agents is the overexpression of the βIII isotype of tubulin.

purified tubulin = assay: Inhibition of tubulin assembly (Section II); type: biochemical; conditions: Table 5; Section II compounds; read-out: Inhibition of tubulin assembly IC50 ± SD
Method: The effects of 3, 4, 6, 7 and 9 on the polymerization of purified tubulin were evaluated (Table 5). This allows a study of the direct interaction of these compounds with their intracellular target. The ability of these compounds to bind to the colchicine site on tubulin was evaluated by measuring inhibition of [^3H]colchicine binding to tubulin.

[4] = system: Pgp expressing SK-OV-3 MDR1-6-6; assay: Antiproliferative activity, Pgp expressing SK-OV-3 MDR1-6-6; type: cell-based; conditions: Homo sapiens
[5] = system: β-III overexpressing HeLa; assay: Antiproliferative activity, β-III overexpressing HeLa; type: cell-based; conditions: Homo sapiens, HeLa; Table 7; read-out: IC50 ± SD β-III overexpressing HeLa
Source text: as §1

[6] = Metabolite identification of 3 with human liver microsomes by LC/MS/MS; type: in vitro ADME
Source text: Compound 3 (Table 4), the para-methylthiophenyl substituted cyclopenta[d]pyrimidne, was designed to decrease the possible demethylation. […] Thus, the methylsulfinyl analog 4 (Table 4) and the methylsulfonyl analog 5 (Table 4) were also synthesized to determine their antiproliferative potencies. […] The electron donating, para-methylamino moiety of 8 (Table 1) and the para-dimethylamino moiety of 9 (Table 4) were designed as isosteric replacements of the O-methoxy moiety. According to the literature,^7 8 should be the major metabolite of 9. […] Compound 13 (Table 4), replaced the phenyl ring with a cyclohexyl ring to determine the importance of π-stacking interaction of the aniline ring. The variations proposed of compounds 10-13 would also serve as structural means to decrease the O-demethylation. […] Similarly, 9 could also function as a potential long acting agent, since the metabolites of both 3 and 9 are anticipated to be potent compounds against tumor cells. Section II Compounds Chemistry:
FIG. 7a) HPLC spectra of 3 incubated with human liver microsomes at 0 and 60 min. Metabolites M1-M5 and parent 3 were illustrated on the spectra. FIG. 7b) MS and MS/MS spectrum of 3. FIG. 7c) MS and MS/MS spectrum of M1 (compound 5). FIG. 7d) MS and MS/MS spectrum of M2 (compound 4). FIG. 7e) Fragmentation of M1 and M2 (MS/MS 239.1340).

[7] = IP 75 mg/kg, listed as AG 165, 75 mg/kg

CCCn1ccc2nc(C)nc(N(C)c3ccc(OC)cc3)c21.Cl [3•HCl]
final average tumor mass compared to the vehicle (MDA-MB-435 xenograft; Day 15, IP 75 mg/kg): statistically significant (p<0.001) lower final average tumor mass | mouse weight change (MDA-MB-435 xenograft; IP 75 mg/kg, compared to the vehicle): recoverable weight loss | adverse effects / toxicity in xenograft trial (MDA-MB-435 xenograft; IP 75 mg/kg, 75 mg/kg): did not induce any noticeable adverse effects or toxicities; also recorded: no apparent toxicity | adverse effects / toxicity in xenograft trial (MDA-MB-435 xenograft; [7]): no evidence of effects on either central or peripheral nervous system | tumor growth during the trial (MDA-MB-435 xenograft; IP 75 mg/kg, nude mice): inhibited tumor growth | antitumor effects (MDA-MB-435 xenograft; IP 75 mg/kg, 75 mg/kg): statistically significant antitumor effects (p<0.001) | antitumor effects (MDA-MB-435 xenograft; [7]): highly statistically significant (p<0.001) antitumor effects | tumors vs control (MDA-MB-435 xenograft; days 9, 11 and 15, 75 mg/kg, p<0.01 days 9 and 11, p<0.0001 day 15): significantly smaller | IC50 (EGFR): 89.3 ± 9.2 nM | IC50 (MDA-MB-435 cancer cells): 8.8 ± 3.4 nM | antitumor effects (MDA-MB-231 xenograft; MDA-MB-231 xenograft, 3.HCl 75 mg/kg IP, paclitaxel 10 mg/kg IP): statistically significant antitumor effects comparable to paclitaxel | tumors vs control (MDA-MB-231 xenograft; days 10 and 15, 75 mg/kg, p<0.01 and p<0.0001): significantly smaller | IC50 (A431): 107 ± 18 nM | tumor volume vs control treated mice ([1]; p=0.0003): significantly smaller | tumor volume vs PTX (10 mg/kg) treated mice ([1]; p=0.0333): significantly smaller | EC50 (A-10 cells; Table 2, read-out: Microtubule depolymerization EC50): 20 nM | IC50 (PDGFR-β): > 200 nM

COc1ccc(/C=C\c2cc(OC)c(OC)c(OC)c2)cc1O [CA-4, combretastatin A-4]
Inhibition of colchicine binding (% inhibition ± SD) [2]: 97% | IC50 (Parental SK-OV-3): […] | IC50 [3]: 9 ± 2 nM | IC50 (Parental OVCAR-8): 6 ± 0.7 nM | IC50 (MDA-MB-435 cancer cells; Homo sapiens, MDA-MB-435): 3.47 ± 0.6 nM | IC50 (Parental HeLa): 4.7 ± 0.2 nM | IC50 (purified tubulin): […] | EC50 (A-10 cells; Rattus norvegicus, A10, Table 2, read-out: Microtubule depolymerization EC50): 13.1 nM | IC50 ([4]; SK-OV-3, read-out: IC50 ± SD Pgp expressing SK-OV-3 MDR1-6-6): 6.6 ± 1.3 nM

CSc1ccc(N(C)c2nc(C)nc3c2CCC3)cc1 [Compound 3]
IC50 (Parental SK-OV-3): 7.2 ± 0.6 nM | IC50 [3]: 210 ± 10 nM | IC50 [5]: 5.26 ± 0.78 nM | IC50 (Parental OVCAR-8): 500 ± 100 nM | IC50 (Parental HeLa): 6.95 ± 0.53 nM | EC50 (A-10 cells; Rattus norvegicus, A10, read-out: EC50 in A-10 cells (Concentration that causes 50% tubulin loss in A-10 cells), Table 4, Section II compounds): 12.6 nM | IC50 ([4]; SK-OV-3, Table 6, read-out: IC50 ± SD Pgp expressing SK-OV-3 MDR1-6-6): 9.28 ± 0.42 nM

Cc1nc2c(c(N(C)c3ccc([S+](C)[O-])cc3)n1)CCC2 (centres unmarked) [Section II compound 4]
MS Peak Area in 60 min sample, HPLC area [6]: 2,199,500

Cc1nc2c(c(N(C)c3ccc(S(C)(=O)=O)cc3)n1)CCC2 [Section II compound 5]
MS Peak Area in 60 min sample, HPLC area ([6]; Section II compound 3 incubated with human liver microsomes, 60 min): 98,900 | MS Peak Area in 60 min sample, Percentage (%) ([6]; Section II compound 3 incubated with human liver microsomes, 60 min, parent and metabolites): 2.2%

CC(=O)O[C@H]1C(=O)[C@@]2(C)[C@H]([C@H](OC(=O)c3ccccc3)[C@]3(O)C[C@H](OC(=O)[C@H](O)[C@@H](NC(=O)c4ccccc4)c4ccccc4)C(C)=C1C3(C)C)[C@]1(OC(C)=O)CO[C@@H]1C[C@@H]2O [paclitaxel]
IC50 [3]: 5000 nM | IC50 (Parental OVCAR-8): 10 nM
